The source of these data is paper PMC5218480 (PLoS ONE, 2017).

This test concerns MV-4-11 cells. The test can be described thus: Gene expression microarray analysis (Affymetrix PrimeView) and GSEA. It is filed as cell-based, human. To be noted: MV-4-11 cells, 48 hours. The arrangement: RFU PODN (11730768_x_at) / Fold change /veh PODN (11730768_x_at) / RFU LINC00158 (11744669_a_at) / Fold change /veh LINC00158 (11744669_a_at) / RFU DUSP10 (11751237_a_at) / Fold change /veh DUSP10 (11751237_a_at) / RFU ID3 (11757404_x_at) / Fold change /veh ID3 (11757404_x_at) / RFU PLEKHG5 (11737974_s_at) / Fold change /veh PLEKHG5 (11737974_s_at) / RFU LRRC4B (11730491_at) / Fold change /veh LRRC4B (11730491_at) / RFU GIMAP4 (11747438_a_at) / Fold change /veh GIMAP4 (11747438_a_at) / RFU KRT8 (11758183_x_at) / Fold change /veh KRT8 (11758183_x_at) / RFU CNN1 (11734310_a_at) / Fold change /veh CNN1 (11734310_a_at) / RFU VPS37D (11726825_at) / Fold change /veh VPS37D (11726825_at) / RFU C10orf10 (11716522_x_at) / Fold change /veh C10orf10 (11716522_x_at) / RFU KIR2DL2 /// KIR2DL4 /// KIR2DL5A /// KIR2DL5B /// KIR2DS1 /// KIR2DS2 /// KIR2DS3 /// KIR2DS4 /// KIR3DL3 /// KIR3DL3 /// KIR3DS1 (11738374_at) / Fold change /veh KIR2DL2 /// KIR2DL4 /// KIR2DL5A /// KIR2DL5B /// KIR2DS1 /// KIR2DS2 /// KIR2DS3 /// KIR2DS4 /// KIR3DL3 /// KIR3DL3 /// KIR3DS1 (11738374_at) / RFU C1QL1 (11718748_at) / Fold change /veh C1QL1 (11718748_at) / RFU TMPRSS4 (11747572_a_at) / Fold change /veh TMPRSS4 (11747572_a_at) / RFU HAMP (11756126_x_at) / Fold change /veh HAMP (11756126_x_at) / RFU RNFT2 (11725882_a_at) / Fold change /veh RNFT2 (11725882_a_at) / RFU NR4A2 (11747474_a_at) / Fold change /veh NR4A2 (11747474_a_at) / RFU ABCC12 (11746883_a_at) / Fold change /veh ABCC12 (11746883_a_at) / RFU TMEM136 (11760407_x_at) / Fold change /veh TMEM136 (11760407_x_at) / RFU CLDN22 /// WWC2 (11732394_at) / Fold change /veh CLDN22 /// WWC2 (11732394_at) / RFU HLA-DPB1 (11760878_x_at) / Fold change /veh HLA-DPB1 (11760878_x_at) / RFU SPINT1 (11716480_a_at) / Fold change /veh SPINT1 (11716480_a_at) / RFU GAP43 (11754022_s_at) / Fold change /veh GAP43 (11754022_s_at) / RFU A4GNT (11735810_at) / Fold change /veh A4GNT (11735810_at) / RFU PRB3 (11715151_x_at) / Fold change /veh PRB3 (11715151_x_at) / RFU TUBB4B (11761932_at) / Fold change /veh TUBB4B (11761932_at) / RFU CAPN14 (11732068_a_at) / Fold change /veh CAPN14 (11732068_a_at) / RFU TMCC2 (11721928_a_at) / Fold change /veh TMCC2 (11721928_a_at) / RFU IRGQ (11745062_a_at) / Fold change /veh IRGQ (11745062_a_at) / RFU FAM174B (11720279_a_at) / Fold change /veh FAM174B (11720279_a_at) / RFU TMPRSS4 (11748680_a_at) / Fold change /veh TMPRSS4 (11748680_a_at) / RFU FAM212B (11763350_a_at) / Fold change /veh FAM212B (11763350_a_at) / RFU PLEKHG5 (11743358_a_at) / Fold change /veh PLEKHG5 (11743358_a_at) / RFU ZSCAN30 (11745921_a_at) / Fold change /veh ZSCAN30 (11745921_a_at) / RFU CMKLR1 (11741424_a_at) / Fold change /veh CMKLR1 (11741424_a_at) / RFU LOC101060620 /// MAPK8IP1 (11723275_at) / Fold change /veh LOC101060620 /// MAPK8IP1 (11723275_at) / RFU SPTSSB (11747773_x_at) / Fold change /veh SPTSSB (11747773_x_at) / RFU PRSS12 (11739890_at) / Fold change /veh PRSS12 (11739890_at) / RFU BIN1 (11741810_x_at) / Fold change /veh BIN1 (11741810_x_at) / RFU WNT11 (11732464_a_at) / Fold change /veh WNT11 (11732464_a_at) / RFU C10orf10 (11716521_a_at) / Fold change /veh C10orf10 (11716521_a_at) / RFU C5orf56 (11738089_at) / Fold change /veh C5orf56 (11738089_at) / RFU CYB561 (11721691_x_at) / Fold change /veh CYB561 (11721691_x_at) / RFU ANKRD19P (11752326_a_at) / Fold change /veh ANKRD19P (11752326_a_at) / RFU OR2T12 /// OR2T33 /// OR2T8 (11738714_s_at) / Fold change /veh OR2T12 /// OR2T33 /// OR2T8 (11738714_s_at) / RFU VCAN (11748164_a_at) / Fold change /veh VCAN (11748164_a_at) / RFU JSRP1 (11732532_at) / Fold change /veh JSRP1 (11732532_at) / RFU KRTAP10-11 (11738290_x_at) / Fold change /veh KRTAP10-11 (11738290_x_at) / RFU MYO3A (11730013_a_at) / Fold change /veh MYO3A (11730013_a_at) / RFU EBF3 (11725865_a_at) / Fold change /veh EBF3 (11725865_a_at) / RFU CAMK2N1 (11719241_x_at) / Fold change /veh CAMK2N1 (11719241_x_at) / RFU C5orf56 (11738088_a_at) / Fold change /veh C5orf56 (11738088_a_at) / RFU OLFML3 (11715873_a_at) / Fold change /veh OLFML3 (11715873_a_at) / RFU LOC100653217 /// NTM (11731650_a_at) / Fold change /veh LOC100653217 /// NTM (11731650_a_at) / RFU MAPK11 (11762145_a_at) / Fold change /veh MAPK11 (11762145_a_at) / RFU FIZ1 (11724087_x_at) / Fold change /veh FIZ1 (11724087_x_at) / RFU OASL (11726364_x_at) / Fold change /veh OASL (11726364_x_at) / RFU SOX15 (11748057_x_at) / Fold change /veh SOX15 (11748057_x_at) / RFU CD79A (11719716_a_at) / Fold change /veh CD79A (11719716_a_at) / RFU HIST1H1D (11736915_at) / Fold change /veh HIST1H1D (11736915_at) / RFU CASKIN2 (11723855_a_at) / Fold change /veh CASKIN2 (11723855_a_at) / RFU LOC730098 (11760151_x_at) / Fold change /veh LOC730098 (11760151_x_at) / RFU OR4N2 (11742367_at) / Fold change /veh OR4N2 (11742367_at) / RFU PRRT2 (11749266_a_at) / Fold change /veh PRRT2 (11749266_a_at) / RFU SNX32 (11753110_a_at) / Fold change /veh SNX32 (11753110_a_at) / RFU CDHR5 (11726645_a_at) / Fold change /veh CDHR5 (11726645_a_at) / RFU RCAN1 (11760418_a_at) / Fold change /veh RCAN1 (11760418_a_at) / RFU FAM167A (11723789_a_at) / Fold change /veh FAM167A (11723789_a_at) / RFU FAM26E (11764081_at) / Fold change /veh FAM26E (11764081_at) / RFU ISYNA1 (11749810_s_at) / Fold change /veh ISYNA1 (11749810_s_at) / RFU ACY1 (11761880_at) / Fold change /veh ACY1 (11761880_at) / RFU 11764098_at / Fold change /veh 11764098_at / RFU SAMD14 (11745864_x_at) / Fold change /veh SAMD14 (11745864_x_at) / RFU NPB (11741838_a_at) / Fold change /veh NPB (11741838_a_at) / RFU TMPRSS6 (11731388_a_at) / Fold change /veh TMPRSS6 (11731388_a_at) / RFU KRTAP10-2 (11738614_at) / Fold change /veh KRTAP10-2 (11738614_at) / RFU ARHGAP8 /// PRR5-ARHGAP8 (11727945_x_at) / Fold change /veh ARHGAP8 /// PRR5-ARHGAP8 (11727945_x_at) / RFU KRTAP5-7 /// NADSYN1 (11734609_at) / Fold change /veh KRTAP5-7 /// NADSYN1 (11734609_at) / RFU RASL12 (11751679_a_at) / Fold change /veh RASL12 (11751679_a_at) / RFU CDKN2B (11736163_a_at) / Fold change /veh CDKN2B (11736163_a_at) / RFU PRF1 (11729649_at) / Fold change /veh PRF1 (11729649_at) / RFU, ZNF638 /// ZNF638-IT1 / Fold change vs veh, ZNF638 /// ZNF638-IT1 / RFU, PANK3 / Fold change vs veh, PANK3 / RFU, SH3YL1 / Fold change vs veh, SH3YL1 / RFU, ZEB2 / Fold change vs veh, ZEB2 / RFU, NRIP1 / Fold change vs veh, NRIP1 / RFU, PTTG1IP / Fold change vs veh, PTTG1IP / RFU, CAPN2 / Fold change vs veh, CAPN2 / RFU, MED14 / Fold change vs veh, MED14 / RFU, SNORA58 / Fold change vs veh, SNORA58 / RFU, C1orf63 / Fold change vs veh, C1orf63 / RFU, LRRFIP1 / Fold change vs veh, LRRFIP1 / RFU, NDUFAF7 / Fold change vs veh, NDUFAF7 / RFU, SLC12A2 / Fold change vs veh, SLC12A2 / RFU, IBTK / Fold change vs veh, IBTK / RFU, ESF1 / Fold change vs veh, ESF1 / Fold change vs veh, TMEM50B / RFU, TAOK1 / Fold change vs veh, TAOK1 / RFU, ACBD3 / Fold change vs veh, ACBD3 / RFU, TMA16 / Fold change vs veh, TMA16 / RFU, RWDD3 / Fold change vs veh, RWDD3 / RFU, BCAT1 / Fold change vs veh, BCAT1 / RFU, EDEM3 / Fold change vs veh, EDEM3 / RFU, TMEM33 / Fold change vs veh, TMEM33 / RFU, WDR75 / Fold change vs veh, WDR75 / RFU, AHCTF1 / Fold change vs veh, AHCTF1 / RFU, TFRC / Fold change vs veh, TFRC / RFU, ZDHHC17 / Fold change vs veh, ZDHHC17 / RFU, NOM1 / Fold change vs veh, NOM1 / RFU, ARL8B / Fold change vs veh, ARL8B / RFU, ZBTB11 / Fold change vs veh, ZBTB11 / RFU, TAMM41 / Fold change vs veh, TAMM41 / RFU, KIAA1704 /// LOC100996395 / Fold change vs veh, KIAA1704 /// LOC100996395 / RFU, ING1 / Fold change vs veh, ING1 / RFU, TRMT61B / Fold change vs veh, TRMT61B / RFU, FUBP3 / Fold change vs veh, FUBP3 / RFU, TP53 / Fold change vs veh, TP53 / RFU, TNKS2 / Fold change vs veh, TNKS2 / RFU, ZFP14 / Fold change vs veh, ZFP14 / RFU, ACTR2 / Fold change vs veh, ACTR2 / RFU, PPP3R1 / Fold change vs veh, PPP3R1 / RFU, PIK3R1 / Fold change vs veh, PIK3R1 / RFU, HNRNPA1 / Fold change vs veh, HNRNPA1 / RFU, RNF170 / Fold change vs veh, RNF170 / RFU, ZNF28 / Fold change vs veh, ZNF28 / RFU, RNGTT / Fold change vs veh, RNGTT / RFU, OGT / Fold change vs veh, OGT / RFU, BRD1 / Fold change vs veh, BRD1 / RFU, MARS / Fold change vs veh, MARS / RFU, ZNF655 / Fold change vs veh, ZNF655 / RFU, FAHD1 / Fold change vs veh, FAHD1 / RFU, BDP1 / Fold change vs veh, BDP1 / RFU, LRRCC1 / Fold change vs veh, LRRCC1 / RFU, ARID1A / Fold change vs veh, ARID1A / RFU, ZNF146 / Fold change vs veh, ZNF146 / RFU, ZNF330 / Fold change vs veh, ZNF330 / RFU, GPN3 / Fold change vs veh, GPN3 / RFU, C9orf123 / Fold change vs veh, C9orf123 / RFU, N4BP2L2 / Fold change vs veh, N4BP2L2 / RFU, ARFIP1 / Fold change vs veh, ARFIP1 / RFU, FAM179B / Fold change vs veh, FAM179B / RFU, BCL10 / Fold change vs veh, BCL10 / RFU, UHRF1BP1L / Fold change vs veh, UHRF1BP1L / RFU, BET1 / Fold change vs veh, BET1 / RFU, CNOT2 / Fold change vs veh, CNOT2 / RFU, ZNF268 / Fold change vs veh, ZNF268 / Fold change vs veh, ZNF507 / RFU, DGCR2 / Fold change vs veh, DGCR2 / RFU, WDSUB1 / Fold change vs veh, WDSUB1 / Fold change vs veh, HSP90B1 /// MIR3652 / RFU, ADSS / Fold change vs veh, ADSS / RFU, GK / Fold change vs veh, GK / RFU, ZNF148 / Fold change vs veh, ZNF148 / RFU, TAF9 / Fold change vs veh, TAF9 / RFU, SLC1A5 / Fold change vs veh, SLC1A5 / RFU, SLMO2 / Fold change vs veh, SLMO2 / RFU, ABCC4 / Fold change vs veh, ABCC4 / RFU, LOC101060439 /// RAP1B / Fold change vs veh, LOC101060439 /// RAP1B / RFU, RFX7 / Fold change vs veh, RFX7 / RFU, GTPBP10 / Fold change vs veh, GTPBP10 / RFU, CNEP1R1 / Fold change vs veh, CNEP1R1 / RFU, BIVM-ERCC5 /// ERCC5 / Fold change vs veh, BIVM-ERCC5 /// ERCC5 / RFU, ILF3 / Fold change vs veh, ILF3 / RFU 11762660_at / Fold change /veh 11762660_at / RFU VCAN (11757783_s_at) / Fold change /veh VCAN (11757783_s_at) / RFU DDX43 (11728927_at) / Fold change /veh DDX43 (11728927_at) / RFU KRT8 (11758188_x_at) / Fold change /veh KRT8 (11758188_x_at) / RFU NKD1 (11759106_at) / Fold change /veh NKD1 (11759106_at) / RFU SRD5A1 (11742802_a_at) / Fold change /veh SRD5A1 (11742802_a_at) / RFU TPSAB1 /// TPSB2 (11721975_s_at) / Fold change /veh TPSAB1 /// TPSB2 (11721975_s_at) / RFU GSTM3 (11746129_a_at) / Fold change /veh GSTM3 (11746129_a_at) / RFU IL23R (11737362_x_at) / Fold change /veh IL23R (11737362_x_at) / RFU TMEM51 (11727254_a_at) / Fold change /veh TMEM51 (11727254_a_at) / RFU PIWIL2 (11732686_x_at) / Fold change /veh PIWIL2 (11732686_x_at) / RFU ORM1 (11744905_x_at) / Fold change /veh ORM1 (11744905_x_at) / RFU CCDC152 (11743942_at) / Fold change /veh CCDC152 (11743942_at) / RFU ECM1 (11717891_a_at) / Fold change /veh ECM1 (11717891_a_at) / RFU IL23R (11748794_a_at) / Fold change /veh IL23R (11748794_a_at) / RFU TNFAIP8L3 (11732012_x_at) / Fold change /veh TNFAIP8L3 (11732012_x_at) / RFU MBOAT4 (11741988_at) / Fold change /veh MBOAT4 (11741988_at) / RFU 11764193_at / Fold change /veh 11764193_at / RFU TMEM53 (11763286_at) / Fold change /veh TMEM53 (11763286_at) / RFU MAGEB2 (11727129_at) / Fold change /veh MAGEB2 (11727129_at) / RFU TMEM200A (11744735_a_at) / Fold change /veh TMEM200A (11744735_a_at) / RFU CCDC152 (11751479_a_at) / Fold change /veh CCDC152 (11751479_a_at) / RFU FAM211A (11726209_a_at) / Fold change /veh FAM211A (11726209_a_at) / RFU RGS16 (11746705_a_at) / Fold change /veh RGS16 (11746705_a_at) / RFU VCAN (11755009_s_at) / Fold change /veh VCAN (11755009_s_at) / RFU RHOB (11743442_s_at) / Fold change /veh RHOB (11743442_s_at) / RFU RGS16 (11720943_a_at) / Fold change /veh RGS16 (11720943_a_at) / RFU RGS16 (11720944_at) / Fold change /veh RGS16 (11720944_at) / RFU, VPS4B / Fold change vs veh, VPS4B / RFU, CREB1 / Fold change vs veh, CREB1 / RFU, DNAJC13 / Fold change vs veh, DNAJC13 / RFU, GNAQ / Fold change vs veh, GNAQ / RFU, CDK5R1 / Fold change vs veh, CDK5R1 / RFU, ZRANB3 / Fold change vs veh, ZRANB3 / RFU, CUL4A / Fold change vs veh, CUL4A / RFU, CCNY / Fold change vs veh, CCNY / RFU, UFL1 / Fold change vs veh, UFL1 / RFU, COG3 / Fold change vs veh, COG3 / RFU, DIAPH2 / Fold change vs veh, DIAPH2 / RFU, SKA2 / Fold change vs veh, SKA2 / RFU, AFF3 / Fold change vs veh, AFF3 / RFU, LMF1 / Fold change vs veh, LMF1 / RFU, IPO11 / Fold change vs veh, IPO11 / RFU, DFFB / Fold change vs veh, DFFB / RFU, FOXP1 / Fold change vs veh, FOXP1 / RFU, CARD8 / Fold change vs veh, CARD8 / RFU, STRN3 / Fold change vs veh, STRN3 / RFU, ADK / Fold change vs veh, ADK / RFU, RASSF2 / Fold change vs veh, RASSF2 / RFU, WIPF1 / Fold change vs veh, WIPF1 / RFU, LARP1B / Fold change vs veh, LARP1B / RFU, RASA1 / Fold change vs veh, RASA1 / RFU, RB1 / Fold change vs veh, RB1 / RFU, PPFIA1 / Fold change vs veh, PPFIA1 / RFU, MAT2A / Fold change vs veh, MAT2A / RFU, CCT5 / Fold change vs veh, CCT5 / RFU, WDR92 / Fold change vs veh, WDR92 / RFU, CUX1 / Fold change vs veh, CUX1 / RFU, TTC7A / Fold change vs veh, TTC7A / RFU, TMEM135 / Fold change vs veh, TMEM135 / RFU, DEPTOR / Fold change vs veh, DEPTOR / RFU, CPM / Fold change vs veh, CPM / RFU, DNAJB6 / Fold change vs veh, DNAJB6 / RFU, CACNA2D3 / Fold change vs veh, CACNA2D3 / RFU, DTX4 / Fold change vs veh, DTX4 / RFU, TFCP2 / Fold change vs veh, TFCP2 / RFU, GMCL1 /// GMCL1P1 / Fold change vs veh, GMCL1 /// GMCL1P1 / RFU, AEBP2 / Fold change vs veh, AEBP2 / RFU, SNHG1 /// SNORD22 /// SNORD25 /// SNORD26 /// SNORD27 /// SNORD28 /// SNORD29 /// SNORD31 / Fold change vs veh, SNHG1 /// SNORD22 /// SNORD25 /// SNORD26 /// SNORD27 /// SNORD28 /// SNORD29 /// SNORD31 / Fold change (Aza/veh), C12orf56 (ProbeSet 11735607_a_at) / Fold change (ACY-1035/veh), C12orf56 (ProbeSet 11735607_a_at) / Fold change (Aza/veh), FGFR1OP (ProbeSet 11751329_s_at) / Fold change (ACY-1035/veh), FGFR1OP (ProbeSet 11751329_s_at) / Fold change (Aza/veh), VPS36 (ProbeSet 11739960_a_at) / Fold change (ACY-1035/veh), VPS36 (ProbeSet 11739960_a_at) / RFU SYPL1 (11715823_x_at) / Fold change /veh SYPL1 (11715823_x_at) / RFU IGFBP7 (11715501_s_at) / Fold change /veh IGFBP7 (11715501_s_at) / RFU REEP3 (11722064_at) / Fold change /veh REEP3 (11722064_at) / RFU IGLL1 (11728026_x_at) / Fold change /veh IGLL1 (11728026_x_at): dose or concentration left out as unconfirmed.

Take `Nc1ncn([C@@H]2O[C@H](CO)[C@@H](O)[C@H]2O)c(=O)n1` [azacitidine]: the “Fold change /veh RASL12 (11751679_a_at)” value is listed as 0.96.
